Test results taken from PMC11341359, “Assessing the immunogenicity risk of salmon calcitonin peptide impurities using in silico and in vitro methods” (Frontiers in Pharmacology, 2024).
Peptide text beside a SMILES is read from it.

What was measured:
HLA DRB1*0301 = biological target: T1, HLA DRB1*0301 (Homo sapiens, UniProt P01903+P01911, A100K/A102G/A103R/A169T/F55Y/I96L/K41T/L162R/M171V/P40S/Q125H/Q178H/Q39Y/R42S/S66N/T106N/T262R/W38E/Y61H); experiment: Class II HLA competition binding assay; conditions: short assay peptides (Cys7 replaced with Ser); competition with biotinylated allele-specific peptide, soluble HLA DR, overnight, time-resolved fluorescence, triplicate, seven concentrations; unit inferred
T1 construct: incubated overnight to equilibrium with a soluble HLA DR molecule; purchased Benaroya Research Institute, Seattle, Washington
Procedure: (§1) The class II HLA binding assays performed for these studies measure the binding affinity of a target peptide to HLA DRB1*0101, *0301, *0401, *0701, *0901, *1101, *1301, and *1501 in a standardized competition assay. This assay was originally described by [Steere et al. (2006)] and adapted by EpiVax. Previous publications have described the assay in detail ([McMurry et al., 2007]; [Ardito et al., 2011]). Briefly, unlabeled test peptides are incubated overnight to equilibrium with a soluble HLA DR molecule (Benaroya Research Institute, Seattle, Washington) and a biotinylated, allele-specific competitor peptide. The binding reaction is then neutralized, and peptide–HLA complexes are transferred to a 96-well plate coated with the pan-HLA DR antibody, clone L243 (BioLegend), and incubated overnight. The following day, Europium-labeled streptavidin (PerkinElmer, Waltham, MA) is added to identify the peptide–HLA complexes. An indirect measure of binding is determined by time-resolved fluorescence. Each peptide–HLA binding reaction is evaluated in triplicate over a range of seven concentrations. The percent inhibition values at seven distinct concentrations are used to calculate the IC50 value, defined as the concentration at which the test peptide inhibits 50% of the labeled competitor peptide.
(§2) Peptides that bind to the HLA at an IC50 value of 100 nM or less are considered very high-affinity binders. Peptides that bind at IC50 values ranging from 100 nM to 1,000 nM are considered high-affinity binders. Peptides that bind at IC50 values ranging from 1,000 nM to 10,000 nM are considered moderate-affinity binders. Peptides that bind at IC50 values ranging from 10,000 nM to 100,000 nM are considered low-affinity binders, and those with IC50 values ranging from 100,000 nM to 1,000,000 nM are considered negligible-affinity binders. […] We note that these concentrations are specific for the in vitro HLA-binding assay and are used to compare the relative binding affinities of the impurity sequences to the API and independent from the peptide concentrations described for the in vitro T-cell assays described below.

HLA DRB1*0901 = HLA DRB1*0901 (Homo sapiens, UniProt P01903+P01911, A100R/A103E/D57H/D86V/F55Y/F60I/F76Y/I96F/K127E/L162R/M171V/P40D/Q125H/Q99R/R33Q/R42F/S133A/S66N/T210M/V115G/W38K/Y107V/Y59G/Y89S); experiment: Class II HLA competition binding assay; conditions: short assay peptides (Cys7 replaced with Ser); competition with biotinylated allele-specific peptide, soluble HLA DR, overnight, time-resolved fluorescence, triplicate, seven concentrations
Procedure: as §1, §2

HLA DRB1*1101 = biological target: T2, HLA DRB1*1101 (Homo sapiens, UniProt P01903+P01911, A100R/A169T/A87E/I96F/K41T/L162R/M171V/P40S/Q125H/Q178H/Q39Y/Q99D/R42S/S66Y/T262R/V115G/W38E); experiment: Class II HLA competition binding assay; conditions: short assay peptides (Cys7 replaced with Ser); competition with biotinylated allele-specific peptide, soluble HLA DR, overnight, time-resolved fluorescence, triplicate, seven concentrations; unit inferred
T2 construct: incubated overnight to equilibrium with a soluble HLA DR molecule; purchased Benaroya Research Institute, Seattle, Washington
Procedure: as §1, §2

HLA DRB1*0701 = HLA DRB1*0701 (Homo sapiens, UniProt P01903+P01911, A100R/A102G/A103Q/D57E/D86V/E43K/F76Y/K127E/L162R/M171V/P40G/Q125H/Q99D/R33Q/R42Y/R54Q/S133A/S66F/T210M/V115G/Y107V/Y59L/Y89S); experiment: Class II HLA competition binding assay; conditions: short assay peptides (Cys7 replaced with Ser); competition with biotinylated allele-specific peptide, soluble HLA DR, overnight, time-resolved fluorescence, triplicate, seven concentrations
Procedure: as §1, §2

HLA DRB1*1501 = biological target: T3, HLA DRB1*1501 (Homo sapiens, UniProt P01903+P01911); experiment: Class II HLA competition binding assay; conditions: short assay peptides (Cys7 replaced with Ser); competition with biotinylated allele-specific peptide, soluble HLA DR, overnight, time-resolved fluorescence, triplicate, seven concentrations; unit inferred
T3 construct: incubated overnight to equilibrium with a soluble HLA DR molecule; purchased Benaroya Research Institute, Seattle, Washington
Procedure: as §1, §2

HLA DRB1*0401 = biological target: T4, HLA DRB1*0401 (Homo sapiens, UniProt P01903+P01911, A100K/A169T/F76Y/I96L/K127E/L162R/M171V/N62H/P40V/Q125Y/R42H/S133A/S149N/S66Y/V115G/V209L/W38E); experiment: Class II HLA competition binding assay; conditions: short assay peptides (Cys7 replaced with Ser); competition with biotinylated allele-specific peptide, soluble HLA DR, overnight, time-resolved fluorescence, triplicate, seven concentrations
T4 construct: incubated overnight to equilibrium with a soluble HLA DR molecule; purchased Benaroya Research Institute, Seattle, Washington
Procedure: as §1, §2

HLA DRB1*1301 = biological target: T5, HLA DRB1*1301 (Homo sapiens, UniProt P01903+P01911, A100E/A169T/K41T/L162R/M171V/P40S/Q125H/Q178H/Q39Y/Q99D/R42S/S66N/T262R/W38E/Y61H); experiment: Class II HLA competition binding assay; conditions: short assay peptides (Cys7 replaced with Ser); competition with biotinylated allele-specific peptide, soluble HLA DR, overnight, time-resolved fluorescence, triplicate, seven concentrations; unit inferred
T5 construct: incubated overnight to equilibrium with a soluble HLA DR molecule; purchased Benaroya Research Institute, Seattle, Washington
Procedure: as §1, §2

HLA DRB1*0101 = biological target: T6, HLA DRB1*0101 (Homo sapiens, UniProt P01903+P01911, A100R/D57E/F55L/F60I/F76Y/I96L/L162R/M171V/P40L/Q125E/R42F/V115G/Y59C); experiment: Class II HLA competition binding assay; conditions: short assay peptides (Cys7 replaced with Ser); competition with biotinylated allele-specific peptide, soluble HLA DR, overnight, time-resolved fluorescence, triplicate, seven concentrations; unit inferred
T6 construct: incubated overnight to equilibrium with a soluble HLA DR molecule; purchased Benaroya Research Institute, Seattle, Washington
Procedure: as §1, §2

[1] = of those who develop ADAs; ref LEVY et al., 1988; Grauer et al., 1995; cited from earlier work
From the text: In this case study, we describe an exercise to assess the immunogenicity risk of generic peptide impurities that were identified in salmon calcitonin (SCT). SCT is a peptide drug currently under development for the generic market by several manufacturers. Salmon calcitonin is a 32-amino acid peptide drug approved in the United States for the treatment of postmenopausal osteoporosis, Paget’s disease, and hypercalcemia. Salmon calcitonin shares only 50% amino acid sequence homology with human calcitonin (Figure 1), and despite its therapeutic benefits, in clinical trials, 40%–70% of patients tre ...

[2] = greater than human calcitonin; ref Epand et al., 1983; Lee et al., 2011; Andreassen et al., 2014; cited from earlier work
From the text: Despite the risk of immunogenicity, SCT is preferred for therapeutic use over human calcitonin due to its 50-fold greater potency in vivo. Increased potency is attributed to the ability of the peptide to adopt an α-helical structure and bind to the human calcitonin receptor with a greater, and nearly irreversible, affinity relative to the human homolog ([Epand et al., 1983]; [Lee et al., 2011]; [Andreassen et al., 2014]).

human donor PBMCs = experiment: In vitro immunogenicity protocol (IVIP) naïve T-cell assay, IFNγ FluoroSpot; format: cell-based; conditions: individual full-length peptides at 20 μg/mL, 14 days, then 48 h IFNγ FluoroSpot; 16 donors; positive: SFC > 50 per 10^6, SI ≥ 2, p < 0.05 vs medium
Procedure: To improve the sensitivity of the T-cell assays, fresh (not frozen) blood samples were obtained from human blood donors for the T-cell assays (internal observations). Specifically, PBMCs were isolated from leukocyte reduction filters obtained from the Rhode Island Blood Center (RIBC) in Providence, RI. To confirm the sufficient breadth of HLA coverage in the donor cohort, high-resolution (4-digit) class II HLA haplotyping of donors was performed at the Transplant Immunology Laboratory at Hartford Hospital in Hartford, CT, using the sequence-specific oligonucleotide method (SSP-PCR). […] supertype alleles were expressed by the donor PBMCs used in the assays reported here (HLA DRB1*0301, *0401, *0701, *1101, *1301, and *1501). The HLA identified for the cohort of subjects used in this study is representative of 81.81% of the HLA alleles expressed by the global population. Forty percent of the donors were female and 60% of the donors were male, and their ages ranged from 17 to 83 years. Donor cohort demographic information and HLA types for each donor are provided in Supplementary Figure S1. To measure the naïve T-cell response to salmon calcitonin and impurity peptides, cells were plated at a density of 2.5 × 10^5 cells per well in 96-well U-bottom cell plates in RPMI 1640 cell culture medium supplemented with IL-2 (10 ng/mL) and IL-7 (20 ng/mL) (Gibco). The cells were incubated with […]®, or a synthetic salmon calcitonin peptide, or individual peptide impurities, at a concentration of 20 μg/mL for 14 days at 37°C/5% CO2, with medium exchanges that include cytokine support (IL-2 and IL-7) on days 4, 7, and 11. A concentration of 20 μg/mL (5.8 μM) was the dose selected for the SCT API and the four selected impurities, following a dose-ranging study performed with […]® to determine the maximum dose at which a T-cell response could be observed with no observed toxicity to the cells. The dose-ranging study was performed following the same protocol as described above. The following control antigens were used in the T-cell assays for each of the PBMC samples: positive controls, keyhole limpet hemocyanin (KLH; Thermo Fisher), and the antigenic peptide pool CEFT (ImmunoSpot). In addition, human serum albumin (HSA; Sigma-Aldrich) was used as a negative control antigen, and phytohemagglutinin (PHA; Thermo Fisher), a T-cell mitogen, was used to confirm T-cell functionality. […] Responses were considered positive if (1) the number of spots was at least twice the background (stimulation index [SI] ≥ 2); (2) there were greater than 50 spot-forming cells (SFCs) per 1.0 × 10^6 PBMCs; and (3) responses were statistically different from the media (Student's t-test). Each of the test articles (SCT API, RLD, or impurity peptide) and each of the positive and negative controls were evaluated in nine replicate wells containing donor PBMCs. Following the 14-day incubation, cells in the nine replicate wells were collected, pooled by the treatment condition, and re-plated in triplicate on a precoated anti-human IFNγ FluoroSpot plate (Mabtech) at a concentration of 1.0 × 10^5 cells per well in the presence of an appropriate test article or control reagent in supplemented RPMI 1640 culture medium. The FluoroSpot plates were incubated for 48 h at 37°C/5% CO2. After 48 h, FluoroSpot plates were developed according to the manufacturer's directions. Spots were counted on an iSpot Spectrum FluoroSpot reading system (AID, Strassberg, Germany) using software 7.0, build 14790. Fluorophore-specific spot parameters were defined using the spot size, spot intensity, and spot gradient. A spot separation algorithm was applied for optimal spot detection. Analysis and counting of spots were performed by unbiased experts at ZellNet Consulting, Inc. (Fort Lee, NJ).

Row | IC50 (HLA DRB1*0301) | IC50 (HLA DRB1*0901) | IC50 (HLA DRB1*1101) | IC50 (HLA DRB1*0701) | IC50 (HLA DRB1*1501) | IC50 (HLA DRB1*0401) | IC50 (HLA DRB1*1301) | IC50 (HLA DRB1*0101) | Compound | patients with ADAs who develop neutralizing anti-SCT antibodies (NADAs) [1] | potency in vivo relative to human calcitonin [2] | Percentage of Responding Donors (human donor PBMCs) | Responding Donors (human donor PBMCs)
1 | 66.4 µM | > 1000 µM | 161 µM | > 1000 µM | 2.29 µM | > 1000 µM | 8.72 µM | 3.35 µM | CC(C)C[C@H](NC(=O)[C@H](CCC(=O)O)NC(=O)[C@H](CCC(N)=O)NC(=O)[C@@H](N)CO)C(=O)N[C@@H](Cc1c[nH]cn1)C(=O)N[C@@H](CCCCN)C(=O)N[C@@H](CC(C)C)C(=O)N[C@@H](CCC(N)=O)C(=O)N[C@H](C(=O)N[C@@H](Cc1ccc(O)cc1)C(=O)N1CCC[C@H]1C(=O)N[C@@H](CCCNC(=N)N)C(=O)N[C@H](C(=O)N[C@@H](CC(N)=O)C(=O)N[C@H](C(=O)O)[C@@H](C)O)[C@@H](C)O)[C@@H](C)O [API SCT(13-27)] (H-SQELHKLQTYPRTNT-OH) |  |  |  | 
2 | > 1000 µM | > 1000 µM | 105 µM | > 1000 µM | 95.9 µM | > 1000 µM | > 1000 µM | 11.1 µM | CC(C)C[C@H](NC(=O)[C@H](CCCCN)NC(=O)CNC(=O)[C@H](CC(C)C)NC(=O)[C@@H](NC(=O)[C@H](CO)NC(=O)[C@@H](NC(=O)[C@@H](N)CO)[C@@H](C)O)C(C)C)C(=O)N[C@@H](CO)C(=O)N[C@@H](CCC(N)=O)C(=O)N[C@@H](CCC(=O)O)C(=O)N[C@@H](CC(C)C)C(=O)N[C@@H](Cc1c[nH]cn1)C(=O)N[C@@H](CCCCN)C(=O)N[C@@H](CC(C)C)C(=O)N[C@@H](CCC(N)=O)C(=O)N[C@H](C(=O)N[C@@H](Cc1ccc(O)cc1)C(=O)O)[C@@H](C)O [API SCT(5-22)] (H-STSVLGKLSQELHKLQTY-OH) |  |  |  | 
3 |  |  |  |  |  |  |  |  | CSNLSTCVLGKLSQELHKLQTYPRTNTGSGTP (disulfide) [SCT API, salmon calcitonin, 32-amino acid peptide drug, disulfide Cys1-Cys7, C-terminus amidated] | more than 60% | 50 fold | 44% | 7
